According to patent US20240002344A1, “COMPOUNDS, COMPOSITIONS AND METHODS FOR HISTONE LYSINE DEMETHYLASE INHIBITION” (FibroGen, Inc., priority 2020, published 2024):

Tests used:
[1] = target: T1, recombinant human KDM5B (Homo sapiens, UniProt Q9UGL1); test: 14CO2 capture enzymatic assay (decarboxylation of [1-14C] αKG), KDM5B; format: biochemical; conditions: 10 μM [1-14C] αKG, 90 μM non-labeled αKG, 50 μM peptide substrate, 37° C., 1 hour, final 1% DMSO
T1 sequence (Q9UGL1 374-755 limits assumed): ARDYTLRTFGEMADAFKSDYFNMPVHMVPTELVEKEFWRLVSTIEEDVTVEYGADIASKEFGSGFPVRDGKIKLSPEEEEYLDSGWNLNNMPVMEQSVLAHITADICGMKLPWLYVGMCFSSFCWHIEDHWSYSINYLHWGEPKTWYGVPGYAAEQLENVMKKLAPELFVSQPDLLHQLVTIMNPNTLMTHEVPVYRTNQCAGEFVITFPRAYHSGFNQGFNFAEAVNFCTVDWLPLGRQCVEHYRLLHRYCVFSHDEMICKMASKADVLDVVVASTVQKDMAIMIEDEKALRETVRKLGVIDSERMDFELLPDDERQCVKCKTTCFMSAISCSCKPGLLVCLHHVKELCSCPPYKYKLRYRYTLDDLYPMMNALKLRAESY
Outline: (§1)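 Truncated recombinant human KDM5B (H3K4me3 peptide) or KDM4A (H3K9me3 peptide), 50 μM peptide, with 10 μM [1-14C]αKG plus 90 μM unlabeled αKG, 10 μM Fe(SO4), 2 mM ascorbate in pH 7.4 HEPES, 1 h at 37 °C, 1% DMSO. Released 14CO2 trapped on Ba(OH)2 filter; IC50 by non-linear fit.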

[2] = target: T2, recombinant human KDM4A (Homo sapiens, UniProt O75164); test: 14CO2 capture enzymatic assay (decarboxylation of [1-14C] αKG), KDM4A; format: biochemical; conditions: 10 μM [1-14C] αKG, 90 μM non-labeled αKG, 50 μM peptide substrate, 37° C., 1 hour, final 1% DMSO
T2 construct: made in house
T2 sequence (O75164 1-359 limits assumed): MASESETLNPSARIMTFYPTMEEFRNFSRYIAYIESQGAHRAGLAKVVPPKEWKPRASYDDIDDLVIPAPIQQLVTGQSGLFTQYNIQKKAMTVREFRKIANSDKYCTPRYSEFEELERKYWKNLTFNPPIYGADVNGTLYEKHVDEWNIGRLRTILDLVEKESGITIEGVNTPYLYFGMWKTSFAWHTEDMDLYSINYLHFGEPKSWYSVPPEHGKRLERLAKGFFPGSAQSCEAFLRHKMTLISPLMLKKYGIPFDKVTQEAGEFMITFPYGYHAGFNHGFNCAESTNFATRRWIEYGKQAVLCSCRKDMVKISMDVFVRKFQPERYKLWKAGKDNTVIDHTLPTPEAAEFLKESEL
Outline: as §1

SMILES | IC50 [1] | IC50 [2]
N#Cc1cc(Cc2ccccc2Cl)nc(C(=O)CCC(=O)O)c1O [Example 21, 4-[6-(2-Chloro-benzyl)-4-cyano-3-hydroxy-pyridin-2-yl]-4-oxo-butyric acid] | 210 nM | 29000 nM
N#Cc1cc(-c2ccc(OC(F)(F)F)cc2)nc(C(=O)CCC(=O)O)c1O [Example 67, 4-[4-Cyano-3-hydroxy-6-(4-trifluoromethoxy-phenyl)-pyridin-2-yl]-4-oxo-butyric acid] | 240 nM | > 40000 nM
Cc1cccc(C)c1C(=O)Nc1cc(C#N)c(O)c(C(=O)CCC(=O)O)n1 [Example 129, 4-[4-Cyano-6-(2,6-dimethyl-benzoylamino)-3-hydroxy-pyridin-2-yl]-4-oxo-butyric acid] | 560 nM | > 40000 nM
COc1ccc(Cl)c(-c2cc(C#N)c(O)c(C(=O)CCC(=O)O)n2)c1 [Example 106, 4-[6-(2-Chloro-5-methoxy-phenyl)-4-cyano-3-hydroxy-pyridin-2-yl]-4-oxo-butyric acid] | 350 nM | > 40000 nM
N#Cc1cc(Cc2ccc(Cl)cc2Cl)nc(C(=O)CCC(=O)O)c1O [Example 64, 4-[4-Cyano-6-(2,4-dichloro-benzyl)-3-hydroxy-pyridin-2-yl]-4-oxo-butyric acid] | 260 nM | > 40000 nM
N#Cc1cc(-c2ccc3ccccc3c2)nc(C(=O)CCC(=O)O)c1O [Example 77, 4-(4-Cyano-3-hydroxy-6-naphthalen-2-yl-pyridin-2-yl)-4-oxo-butyric acid] | 40 nM | 12000 nM
Cc1cccc(C)c1Cc1cc(C(=O)CCC(=O)O)c(O)c(C#N)n1 [Example 133, 4-[2-Cyano-6-(2,6-dimethyl-benzyl)-3-hydroxy-pyridin-4-yl]-4-oxo-butyric acid] | 1400 nM | > 40000 nM
N#Cc1cc(-c2ccccn2)nc(C(=O)CCC(=O)O)c1O [Example 11, 4-(4-Cyano-5-hydroxy-[2,2′]bipyridinyl-6-yl)-4-oxo-butyric acid] | 590 nM | > 40000 nM
N#Cc1cc(CCc2ccccc2)cc(C(=O)CCC(=O)O)c1O [Example 135, 4-(3-Cyano-2-hydroxy-5-phenethyl-phenyl)-4-oxo-butyric acid] | 370 nM | > 40000 nM
N#Cc1cc(NC(=O)c2c(Cl)cccc2Cl)nc(C(=O)CCC(=O)O)c1O [Example 128, 4-[4-Cyano-6-(2,6-dichloro-benzoylamino)-3-hydroxy-pyridin-2-yl]-4-oxo-butyric acid] | 380 nM | > 40000 nM
Cn1cc(-c2cc(C#N)c(O)c(C(=O)CCC(=O)O)n2)cn1 [Example 16, 4-[4-Cyano-3-hydroxy-6-(1-methyl-1H-pyrazol-4-yl)-pyridin-2-yl]-4-oxo-butyric acid] | 210 nM | > 40000 nM
N#Cc1cc(-c2ccccc2F)nc(C(=O)CCC(=O)O)c1O [Example 69, 4-[4-Cyano-6-(2-fluoro-phenyl)-3-hydroxy-pyridin-2-yl]-4-oxo-butyric acid] | 150 nM | > 40000 nM
